One assay addresses T1, human ORL1 receptors (Homo sapiens, UniProt P41146).
T1 construct: expressed in transfected cells; host or cells: CHO cells (membranes)
The experiment in a line: [3H]-OFQ/nociceptin receptor binding assay. Here is the method:
Radioligand binding assays are commonly used to determine the affinity (Ki) or potency of a compound to bind to a particular receptor or target protein. A filtration-based [3H]-OFQ/nociceptin receptor binding assay is developed based on previous assay formats (Ardati A, Henningsen R A, Higelin J, Reinscheid R K, Civelli O, Monsma F J Jr. Mol. Pharmacol. 1997 May; 51(5):816-24.) with minor modifications. [3H]-OFQ/nociceptin binding assays are carried out in deep-well 96-well plates. [^3H]OFQ (final assay concentration 0.2 nM) competition studies are carried out with 5-10 μg of membrane protein (isolated from Chinese hamster ovary cells (CHO cells) expressing cloned human ORL1 receptors) in a final assay volume of 0.5 mL of buffer containing 20 mM HEPES, pH 7.4, 5 mM MgCl2, 1 mM EGTA, 100 mM NaCl, 0.1% bovine serum albumin. Samples are incubated for 60 min. at room temperature, which is found to be optimal for competition assays. The assays are terminated by filtration through glass fiber filters (Wallac filtermat A) [pretreated with 0.3% polyethylenimine (Sigma) for 1 hr] on a Tometc cell harvester, and the filters are washed three times with 5 mL of ice-cold 50 mM Tris.HCl, pH 7.4. Filtermats are then dried and imbedded with Meltilex scintillant A and the radioactivity counted in a Wallac Microbeta scintillation counter. Specific binding is determined by displacement with 100 nM unlabeled nociceptin. Curves are plotted as the percent of specific binding and IC50 values are determined using a sigmoidal dose response curve with variable slope. Ki values are calculated from the IC50 by the equation of Cheng and Prusoff (Cheng, Y. C., and Prusoff, W. H., Biochem. Pharmacol. 22, 3099-3108 (1973)) where Ki=IC50×(1+D×Kd^−1)^−1.

The target in a further assay is Mu Opioid (Homo sapiens, UniProt P35372). The experiment in a line: Radioligand binding selectivity, Mu Opioid. The text has this:
(§1) Similarly, Ki for the mu, kappa and delta opioids, serotonin, dopamine, adrenergic, mucarinic, and histamine receptors, as well as binding to the norepinephrine transporter, sodium channel, chloride channel, and calcium channel may be determined using membranes expressing the desired receptor/transporter/channels and appropriate corresponding radioligand competitor molecules.

Assay [1] concerns wild type and ORL knockout mice. The experiment in a line: Blockade of fasting-induced hyperphagia in mice. The class given is in vivo. From the text:
Blockade of fasting-induced hyperphagia in rodents is an accepted model for hyperphagic eating disorders. […] Mice are individually housed a minimum of 3 days prior to the onset of testing to eliminate any effects of stress due to the change from group to individual housing. Three mice/genotype are randomly assigned to each treatment group on the test day. Pre-fast body weight measurements are taken, and food is then removed from cages overnight. Mice are fasted for approximately 15 hr. The next morning, the mice are given one of three doses of drug or vehicle via oral gavage 30 min. prior to gaining access to food. Drugs are dissolved in 20% Captisol dissolved in 25 mM phosphate buffer, pH 2.0. Measurements of body weight are taken immediately prior to drug treatment or 24 hr. after access to food is restored. […] Measurements of food intake are recorded 1 hr following access to food, as indicated, by weight of food remaining at 1 hr. It should be noted that food intake measured is during the light phase, a time during which mice are typically at rest and not normally eating. Following initial testing, mice are rested for 1 week with access to unlimited chow.

The next assay deals with 5-HT1B (Homo sapiens, UniProt P28222). The experiment in a line: Radioligand binding selectivity, 5-HT1B.
Chain of 5-HT1B (P28222 whole entry, species assumed): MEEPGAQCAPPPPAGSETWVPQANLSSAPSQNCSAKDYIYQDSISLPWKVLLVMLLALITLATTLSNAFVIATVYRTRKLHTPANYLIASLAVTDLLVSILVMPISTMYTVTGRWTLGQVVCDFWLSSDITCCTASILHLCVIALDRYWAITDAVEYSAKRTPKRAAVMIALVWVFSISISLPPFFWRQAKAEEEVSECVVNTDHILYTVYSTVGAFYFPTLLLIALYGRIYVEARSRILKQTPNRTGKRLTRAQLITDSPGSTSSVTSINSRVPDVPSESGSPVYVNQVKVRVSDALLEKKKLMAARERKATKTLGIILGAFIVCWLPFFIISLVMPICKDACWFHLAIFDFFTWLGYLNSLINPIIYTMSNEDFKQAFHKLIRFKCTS
From the text: as §1

For another assay, the target named is 5-HT1E (Homo sapiens, UniProt P28566). As to the kind of experiment: Radioligand binding selectivity, 5-HT1E.
Chain of 5-HT1E (P28566 whole entry, species assumed): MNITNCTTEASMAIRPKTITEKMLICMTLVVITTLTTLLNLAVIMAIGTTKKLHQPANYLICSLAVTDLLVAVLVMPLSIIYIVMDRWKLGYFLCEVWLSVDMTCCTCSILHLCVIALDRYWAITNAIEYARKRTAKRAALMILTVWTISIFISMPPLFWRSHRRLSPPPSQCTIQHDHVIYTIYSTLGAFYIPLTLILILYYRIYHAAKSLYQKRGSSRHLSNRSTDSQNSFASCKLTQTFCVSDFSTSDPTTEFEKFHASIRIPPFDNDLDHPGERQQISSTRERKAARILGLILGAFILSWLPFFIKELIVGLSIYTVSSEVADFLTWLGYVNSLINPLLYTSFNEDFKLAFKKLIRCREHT
From the text: as §1

Another assay concerns the target 5-HT2C (Homo sapiens, UniProt P28335). As to the kind of experiment: Radioligand binding selectivity, 5-HT2C.
From the text: as §1

In the next assay the target is 5-HT5 (Homo sapiens, UniProt P47898). As to the kind of experiment: Radioligand binding selectivity, 5-HT5.
Chain of 5-HT5 (P47898 whole entry): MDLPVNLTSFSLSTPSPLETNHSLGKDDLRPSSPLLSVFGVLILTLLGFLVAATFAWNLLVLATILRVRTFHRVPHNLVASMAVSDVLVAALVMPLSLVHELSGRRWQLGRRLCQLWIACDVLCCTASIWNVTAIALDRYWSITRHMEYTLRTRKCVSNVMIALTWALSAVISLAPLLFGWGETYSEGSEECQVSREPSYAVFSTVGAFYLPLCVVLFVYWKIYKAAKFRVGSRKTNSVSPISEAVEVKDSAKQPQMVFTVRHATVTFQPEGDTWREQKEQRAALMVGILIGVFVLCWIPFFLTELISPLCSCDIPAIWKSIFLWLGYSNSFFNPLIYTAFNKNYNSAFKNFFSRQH
From the text: as §1

A further assay addresses 5-HT7 (Homo sapiens, UniProt P34969). As to the kind of experiment: Radioligand binding selectivity, 5-HT7.
From the text: as §1

A further assay concerns the target Adrenergic Alpha1. As to the kind of experiment: Radioligand binding selectivity, Adrenergic Alpha1.
From the text: as §1

The target of a further assay is Adrenergic Alpha2. As to the kind of experiment: Radioligand binding selectivity, Adrenergic Alpha2.
From the text: as §1

Another assay addresses Adrenergic Beta1 (Homo sapiens, UniProt P08588). As to the kind of experiment: Radioligand binding selectivity, Adrenergic Beta1.
From the text: as §1

The target in a further assay is Muscarinic M2 (Homo sapiens, UniProt P08172). As to the kind of experiment: Radioligand binding selectivity, Muscarinic M2.
Chain of Muscarinic M2 (P08172 whole entry): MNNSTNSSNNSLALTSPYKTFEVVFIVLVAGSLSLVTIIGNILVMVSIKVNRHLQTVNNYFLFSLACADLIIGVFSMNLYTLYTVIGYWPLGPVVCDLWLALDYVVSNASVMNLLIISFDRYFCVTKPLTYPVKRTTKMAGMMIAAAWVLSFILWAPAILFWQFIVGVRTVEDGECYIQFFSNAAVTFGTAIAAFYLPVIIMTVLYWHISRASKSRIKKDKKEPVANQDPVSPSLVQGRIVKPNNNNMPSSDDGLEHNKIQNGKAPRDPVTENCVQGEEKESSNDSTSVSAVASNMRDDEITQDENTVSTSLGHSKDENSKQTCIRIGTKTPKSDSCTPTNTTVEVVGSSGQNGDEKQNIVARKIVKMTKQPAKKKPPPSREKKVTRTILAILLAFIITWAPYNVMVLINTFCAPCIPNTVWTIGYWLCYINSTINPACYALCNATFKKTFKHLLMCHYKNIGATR
From the text: as §1

The target of assay [2] is Norepinephrine transporter (Homo sapiens, UniProt P23975). As to the kind of experiment: Radioligand binding selectivity, Norepinephrine transporter.
Chain of Norepinephrine transporter (P23975 whole entry, species assumed): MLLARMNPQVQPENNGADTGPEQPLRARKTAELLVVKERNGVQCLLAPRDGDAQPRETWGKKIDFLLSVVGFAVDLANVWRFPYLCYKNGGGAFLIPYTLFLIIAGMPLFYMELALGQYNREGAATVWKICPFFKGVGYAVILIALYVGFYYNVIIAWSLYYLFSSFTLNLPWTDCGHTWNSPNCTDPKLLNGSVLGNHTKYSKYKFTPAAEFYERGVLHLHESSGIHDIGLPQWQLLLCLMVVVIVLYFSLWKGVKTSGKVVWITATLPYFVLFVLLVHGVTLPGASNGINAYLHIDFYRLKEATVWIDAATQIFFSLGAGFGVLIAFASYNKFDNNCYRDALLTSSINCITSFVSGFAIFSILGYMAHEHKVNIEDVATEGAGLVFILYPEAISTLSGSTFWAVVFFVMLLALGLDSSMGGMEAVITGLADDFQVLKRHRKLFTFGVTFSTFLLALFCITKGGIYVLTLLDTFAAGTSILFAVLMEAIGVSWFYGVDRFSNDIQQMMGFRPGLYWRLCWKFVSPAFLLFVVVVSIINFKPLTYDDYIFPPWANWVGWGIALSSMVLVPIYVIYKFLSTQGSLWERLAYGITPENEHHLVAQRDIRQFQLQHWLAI
From the text: as §1

Another assay concerns the target Cl− channel. The experiment in a line: Radioligand binding selectivity, Cl− channel.
From the text: as §1

The target in assay [3] is Ca+2 channel (verapamil site). As to the kind of experiment: Radioligand binding selectivity, Ca+2 channel (verapamil site).
From the text: as §1

Setting [4] is: wild type mice, oral gavage 30 min. prior to food, food intake at 1 hr.

SMILES strings stand for the structures. Where two headings read alike, the source gives them in different places.

This note sets out measurements from US8232289B2, “Spiropiperidine compounds as ORL-1 receptor antagonists” (Eli Lilly and Company, priority 2009, dated 2012).

Chain of Mu Opioid (P35372 whole entry): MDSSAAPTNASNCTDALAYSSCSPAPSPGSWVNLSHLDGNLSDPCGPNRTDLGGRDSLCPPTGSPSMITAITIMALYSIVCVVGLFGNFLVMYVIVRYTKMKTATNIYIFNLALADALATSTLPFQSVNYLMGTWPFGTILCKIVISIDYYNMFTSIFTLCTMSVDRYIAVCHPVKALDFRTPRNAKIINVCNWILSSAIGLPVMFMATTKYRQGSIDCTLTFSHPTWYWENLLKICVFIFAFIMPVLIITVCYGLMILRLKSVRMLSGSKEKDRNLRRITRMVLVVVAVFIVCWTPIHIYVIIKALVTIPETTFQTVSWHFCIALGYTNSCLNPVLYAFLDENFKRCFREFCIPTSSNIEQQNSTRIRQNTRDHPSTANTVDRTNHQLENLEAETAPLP
T1 sequence (P41146 whole entry): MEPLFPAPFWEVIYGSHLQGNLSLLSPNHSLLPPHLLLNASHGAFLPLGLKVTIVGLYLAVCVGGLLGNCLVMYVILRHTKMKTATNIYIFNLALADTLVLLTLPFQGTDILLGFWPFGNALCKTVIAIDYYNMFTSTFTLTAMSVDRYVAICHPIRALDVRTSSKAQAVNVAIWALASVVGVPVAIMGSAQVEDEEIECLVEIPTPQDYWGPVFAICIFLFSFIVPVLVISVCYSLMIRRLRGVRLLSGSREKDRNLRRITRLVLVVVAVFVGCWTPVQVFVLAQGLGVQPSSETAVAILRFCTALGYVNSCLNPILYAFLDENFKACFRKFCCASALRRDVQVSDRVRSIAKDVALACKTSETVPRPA
Chain of 5-HT7 (P34969 whole entry, species assumed): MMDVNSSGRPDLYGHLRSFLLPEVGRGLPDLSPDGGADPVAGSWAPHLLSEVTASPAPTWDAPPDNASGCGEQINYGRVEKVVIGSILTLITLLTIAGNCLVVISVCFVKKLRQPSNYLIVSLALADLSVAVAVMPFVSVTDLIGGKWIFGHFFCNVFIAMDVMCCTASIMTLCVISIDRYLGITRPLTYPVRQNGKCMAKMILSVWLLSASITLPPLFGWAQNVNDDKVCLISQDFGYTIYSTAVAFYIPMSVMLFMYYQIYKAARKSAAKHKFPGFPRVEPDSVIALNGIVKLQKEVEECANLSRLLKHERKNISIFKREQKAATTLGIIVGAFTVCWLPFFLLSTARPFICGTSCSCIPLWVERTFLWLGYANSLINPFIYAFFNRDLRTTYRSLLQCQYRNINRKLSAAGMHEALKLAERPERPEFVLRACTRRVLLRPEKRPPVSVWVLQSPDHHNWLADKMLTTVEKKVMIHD
Chain of 5-HT2C (P28335 33-458, species assumed): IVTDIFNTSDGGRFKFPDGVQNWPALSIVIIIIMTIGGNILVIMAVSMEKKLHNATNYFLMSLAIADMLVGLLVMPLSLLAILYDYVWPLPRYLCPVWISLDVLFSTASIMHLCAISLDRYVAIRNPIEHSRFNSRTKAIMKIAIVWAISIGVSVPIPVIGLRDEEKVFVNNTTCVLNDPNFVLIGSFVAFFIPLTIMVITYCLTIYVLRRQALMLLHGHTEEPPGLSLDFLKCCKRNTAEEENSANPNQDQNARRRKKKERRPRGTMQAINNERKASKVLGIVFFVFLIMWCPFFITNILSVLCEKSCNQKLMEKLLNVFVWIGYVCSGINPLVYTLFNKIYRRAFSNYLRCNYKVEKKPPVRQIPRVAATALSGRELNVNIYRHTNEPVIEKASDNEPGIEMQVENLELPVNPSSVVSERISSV
Chain of Adrenergic Beta1 (P08588 whole entry): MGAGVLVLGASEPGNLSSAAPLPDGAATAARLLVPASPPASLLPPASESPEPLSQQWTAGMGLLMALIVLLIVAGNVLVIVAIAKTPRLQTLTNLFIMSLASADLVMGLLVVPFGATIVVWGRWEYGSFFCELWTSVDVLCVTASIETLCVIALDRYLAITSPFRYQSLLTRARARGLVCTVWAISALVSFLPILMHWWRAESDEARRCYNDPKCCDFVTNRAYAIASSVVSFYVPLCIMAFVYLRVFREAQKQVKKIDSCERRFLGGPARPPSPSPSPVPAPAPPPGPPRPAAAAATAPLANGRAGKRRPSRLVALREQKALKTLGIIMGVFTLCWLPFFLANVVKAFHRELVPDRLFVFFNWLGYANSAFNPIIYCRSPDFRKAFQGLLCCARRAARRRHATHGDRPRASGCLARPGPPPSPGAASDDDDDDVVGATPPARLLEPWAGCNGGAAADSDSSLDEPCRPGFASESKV

As for `Cc1nn(-c2ncccc2Cn2cccn2)cc1CN1CCC2(CC1)OCC(F)(F)c1cc(Cl)sc12.O=C(O)C(O)C(O)C(=O)O` [Example 23, 2-Chloro-4,4-difluoro-1′-[[3-methyl-1-[3-(pyrazol-1-ylmethyl)-2-pyridyl]pyrazol-4-yl]methyl]spiro[5H-thieno[2,3-c]pyran-7,4′-piperidine] (L)-Tartrate], the figures for the Ki at human ORL1 receptors and at Mu Opioid were 0.00079 µM and greater than 0.451 µM, respectively. Further, the figures for the “effect on fasting-induced hyperphagia” value in [1] (ORL-1 knockout mouse strain) and in assay [1] (setting [4]) were “not observed” and “substantially block fasting-induced hyperphagia”, respectively.
Turning to `O=C(O)C(O)C(O)C(=O)O.OCc1nn(-c2ncccc2F)cc1CN1CCC2(CC1)OCC(F)(F)c1cc(Cl)sc12` [Example 53, [4-[(2-Chloro-4,4-difluoro-spiro[5H-thieno[2,3-c]pyran-7,4′-piperidine]-1′-yl)methyl]-1-(3-fluoro-2-pyridyl)pyrazol-3-yl]methanol (L)-Tartrate], the Ki was 0.00045 µM on human ORL1 receptors; greater than 0.451 µM on Mu Opioid; greater than 3.58 µM on 5-HT1B; greater than 5.37 µM at 5-HT1E; greater than 5.65 µM at 5-HT2C; greater than 9.09 µM at 5-HT5. Besides, the Ki at 5-HT7 was greater than 3.98 µM; on Adrenergic Alpha1, greater than 5 µM; on Adrenergic Alpha2, greater than 5 µM; at Adrenergic Beta1 it was greater than 5 µM; on Muscarinic M2, greater than 5 µM; in assay [2] it was greater than 0.5 µM. The Ki was greater than 0.5 µM on Cl− channel and greater than 5 µM in assay [3]. Further, the entries for the “effect on fasting-induced hyperphagia” value in assay [1] (ORL-1 knockout mouse strain) and in [1] (setting [4]) were “not observed” and “substantially block fasting-induced hyperphagia”, respectively.
`Cc1nn(-c2ncccc2CO)cc1CN1CCC2(CC1)OCC(F)(F)c1cc(Cl)sc12` [Example 62, [2-[4-[(2-Chloro-4,4-difluoro-spiro[5H-thieno[2,3-c]pyran-7,4′-piperidine]-1′-yl)methyl]-3-methyl-pyrazol-1-yl]-3-pyridyl]methanol]: the Ki at human ORL1 receptors ([3H]OFQ 0.2 nM, CHO cell membranes, read-out: Ki ORL-1) is 0.00018 µM; at Mu Opioid (read-out: Ki Mu Opioid), greater than 0.451 µM; on 5-HT1B (read-out: Ki 5-HT1B), greater than 3.58 µM; on 5-HT1E (read-out: Ki 5-HT1E), greater than 5.37 µM; on 5-HT2C (read-out: Ki 5-HT2C), greater than 5.65 µM; on 5-HT5 (read-out: Ki 5-HT5) it was greater than 9.09 µM. Also, the Ki was greater than 3.98 µM on 5-HT7 (read-out: Ki 5-HT7); greater than 5 µM on Adrenergic Alpha1; greater than 5 µM on Adrenergic Alpha2; greater than 5 µM on Adrenergic Beta1; greater than 0.5 µM on Muscarinic M2 (read-out: Ki Muscarinic M2); greater than 0.5 µM in [2] (read-out: Ki Norepinephrine transporter). The Ki (at Cl− channel; in [3]) was greater than 0.5 µM throughout. The figures for the “effect on fasting-induced hyperphagia” value in [1] (ORL-1 knockout mouse strain) and in assay [1] (setting [4]) were “not observed” and “substantially block fasting-induced hyperphagia”, respectively.
